# Results taken from PubChem BioAssay (NCI).
#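 Cultured in 96-well plates, cells were exposed to test compound for 48 hours across five concentrations. The concentration for full growth arrest is given as TGI.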
# Legend:
# Test in all cases: NCI anticancer screen, dose series, 48 h
# 786-0 renal = test system: 786-0 renal
# A498 renal = test system: A498 renal
# A549 NSCLC = test system: A549 NSCLC
# ACHN renal = test system: ACHN renal
# BT-549 breast = test system: BT-549 breast
# CAKI-1 renal = test system: CAKI-1 renal
# CCRF-CEM leukemia = test system: CCRF-CEM leukemia
# COLO 205 colon = test system: COLO 205 colon
# DU-145 prostate = test system: DU-145 prostate
# EKVX NSCLC = test system: EKVX NSCLC
# HCT-116 colon = test system: HCT-116 colon
# HCT-15 colon = test system: HCT-15 colon
# HL-60(TB) leukemia = test system: HL-60(TB) leukemia
# HOP-62 NSCLC = test system: HOP-62 NSCLC
# HOP-92 NSCLC = test system: HOP-92 NSCLC
# HS 578T breast = test system: HS 578T breast
# HT29 colon = test system: HT29 colon
# IGROV1 ovarian = test system: IGROV1 ovarian
# K-562 leukemia = test system: K-562 leukemia
# KM12 colon = test system: KM12 colon
# LOX IMVI melanoma = test system: LOX IMVI melanoma
# M14 melanoma = test system: M14 melanoma
# MALME-3M melanoma = test system: MALME-3M melanoma
# MCF7 breast = test system: MCF7 breast
# MDA-MB-231 breast = test system: MDA-MB-231 breast
# MDA-MB-435 = test system: MDA-MB-435
# MDA-N = test system: MDA-N
# MOLT-4 leukemia = test system: MOLT-4 leukemia
# NCI-H226 lung = test system: NCI-H226 lung
# NCI-H23 lung = test system: NCI-H23 lung
# NCI-H460 lung = test system: NCI-H460 lung
# NCI-H522 lung = test system: NCI-H522 lung
# NCI/ADR-RES ovarian = test system: NCI/ADR-RES ovarian
# OVCAR-3 ovarian = test system: OVCAR-3 ovarian
# OVCAR-4 ovarian = test system: OVCAR-4 ovarian
# OVCAR-5 ovarian = test system: OVCAR-5 ovarian
# OVCAR-8 ovarian = test system: OVCAR-8 ovarian
# PC-3 prostate = test system: PC-3 prostate
# RPMI-8226 leukemia = test system: RPMI-8226 leukemia
# RXF 393 renal = test system: RXF 393 renal
# SF-268 CNS = test system: SF-268 CNS
# SF-295 CNS = test system: SF-295 CNS
# SF-539 CNS = test system: SF-539 CNS
# SK-MEL-2 melanoma = test system: SK-MEL-2 melanoma
# SK-MEL-28 melanoma = test system: SK-MEL-28 melanoma
# SK-MEL-5 melanoma = test system: SK-MEL-5 melanoma
# SK-OV-3 ovarian = test system: SK-OV-3 ovarian
# SN12C renal = test system: SN12C renal
# SNB-19 CNS = test system: SNB-19 CNS
# SNB-75 CNS = test system: SNB-75 CNS
# SR leukemia = test system: SR leukemia
# SW-620 colon = test system: SW-620 colon
# T-47D breast = test system: T-47D breast
# TK-10 renal = test system: TK-10 renal
# U251 CNS = test system: U251 CNS
# UACC-257 melanoma = test system: UACC-257 melanoma
# UACC-62 melanoma = test system: UACC-62 melanoma
# UO-31 renal = test system: UO-31 renal
compound,measurement,setting,value
CCOC(=O)/C=C(/OCC)[C@@H]1C(C(=O)c2ccc(Cl)cc2)[C@H]1/C(=C\C(=O)OCC)OCC (stereo partly drawn),TGI,786-0 renal,> 100 µM
same,TGI,A498 renal,> 100 µM
same,TGI,A549 NSCLC,> 100 µM
same,TGI,ACHN renal,> 100 µM
same,TGI,BT-549 breast,> 100 µM
same,TGI,CAKI-1 renal,> 100 µM
same,TGI,CCRF-CEM leukemia,> 100 µM
same,TGI,COLO 205 colon,> 100 µM
same,TGI,DU-145 prostate,> 100 µM
same,TGI,EKVX NSCLC,> 100 µM
same,TGI,HCT-116 colon,> 100 µM
same,TGI,HCT-15 colon,> 100 µM
same,TGI,HL-60(TB) leukemia,> 100 µM
same,TGI,HOP-62 NSCLC,> 100 µM
same,TGI,HOP-92 NSCLC,> 100 µM
same,TGI,HS 578T breast,> 100 µM
same,TGI,HT29 colon,> 100 µM
same,TGI,IGROV1 ovarian,> 100 µM
same,TGI,K-562 leukemia,> 25.2 µM
same,TGI,KM12 colon,> 100 µM
same,TGI,LOX IMVI melanoma,> 100 µM
same,TGI,M14 melanoma,> 100 µM
same,TGI,MALME-3M melanoma,> 100 µM
same,TGI,MCF7 breast,> 100 µM
same,TGI,MDA-MB-231 breast,> 100 µM
same,TGI,MDA-MB-435,> 100 µM
same,TGI,MDA-N,> 100 µM
same,TGI,MOLT-4 leukemia,> 100 µM
same,TGI,NCI-H226 lung,> 100 µM
same,TGI,NCI-H23 lung,> 100 µM
same,TGI,NCI-H460 lung,> 100 µM
same,TGI,NCI-H522 lung,> 100 µM
same,TGI,NCI/ADR-RES ovarian,> 100 µM
same,TGI,OVCAR-3 ovarian,> 100 µM
same,TGI,OVCAR-4 ovarian,> 100 µM
same,TGI,OVCAR-5 ovarian,> 100 µM
same,TGI,OVCAR-8 ovarian,> 100 µM
same,TGI,PC-3 prostate,> 100 µM
same,TGI,RPMI-8226 leukemia,> 28.8 µM
same,TGI,RXF 393 renal,> 100 µM
same,TGI,SF-268 CNS,> 100 µM
same,TGI,SF-295 CNS,> 100 µM
same,TGI,SF-539 CNS,> 100 µM
same,TGI,SK-MEL-2 melanoma,> 100 µM
same,TGI,SK-MEL-28 melanoma,> 100 µM
same,TGI,SK-MEL-5 melanoma,> 100 µM
same,TGI,SK-OV-3 ovarian,> 100 µM
same,TGI,SN12C renal,> 100 µM
same,TGI,SNB-19 CNS,> 100 µM
same,TGI,SNB-75 CNS,> 100 µM
same,TGI,SR leukemia,> 23.6 µM
same,TGI,SW-620 colon,> 100 µM
same,TGI,T-47D breast,> 100 µM
same,TGI,TK-10 renal,> 100 µM
same,TGI,U251 CNS,> 100 µM
same,TGI,UACC-257 melanoma,> 100 µM
same,TGI,UACC-62 melanoma,> 100 µM
same,TGI,UO-31 renal,> 100 µM
